# Patent publication US20200239587A1, “SENSITIZATION OF TUMORS TO THERAPIES THROUGH ENDOGLIN ANTAGONISM” (Cedars-Sinai Medical Center, priority 2016, published 2020)
# Entries after “also recorded” stand apart in the source; their conditions may differ.
# What was measured:
# PGC1α in 22Rv1 cells = experiment: PGC1α expression and sub-cellular localization; format: cell-based, human; conditions: 4Gy
# Protocol: (§1) FIGS. 24A-24D depict that PGC1α and mitochondrial biogenesis are regulated by BMP/CD105. 22Rv1 cells were incubated with IgG or TRC105 with or without 4 Gy irradiation. All measurements were made 72 hours post radiation. FIG. 24A) Western blot for whole cell lysate, nuclear and cytoplasmic fractions were independently analyzed for PGC1α expression. Loading controls included β-actin (whole cell), lamin B (nuclear marker), and Rho A (cytoplasm marker). FIG. 24B) Immunofluorescent localization of PGC1α was visualized with DAPI nuclear counterstain. FIG. 24C) mRNA expression of PGC1α target genes, NRF1, MTFA, and CPT1C was measured. mRNA expression was normalized to GAPDH and untreated IgG 0 Gy. FIG. 24D) Mitochondrial DNA (mtDNA) was measured from total DNA extracts and normalized to nuclear DNA and compared to untreated IgG 0 Gy. Data are reported as means+/−S.D. of 3 independent experiments. (***p<0.001, ****p<0.0001).
# PC3 cells = experiment: Cell death assay with docetaxel and TRC105; format: cell-based, human; conditions: different concentrations of docetaxel and TRC105
# Protocol: The PC3 cells used in the cell death assay were treated with different concentrations of docetaxel in the presence of different concentrations of TRC105.
# [1] = tested on: CW22Rv1 cells in 3D co-culture with mouse prostatic fibroblasts; experiment: 3D co-culture epithelial proliferation, EpCam and Ki-67 FACS; format: cell-based, human
# Protocol: A modified version of the 3D organotypic co-culture system was performed in a collagen matrix similar to that previously reported (Stark et al., 1999, J Invest Dermatol 112, 681-691). Collagen matrix gels were prepared by mixing five volumes of rat tail collagen I with two volumes of matrigel (NCI), one volume of 10× DMEM medium (GE Healthcare Life Sciences), and one volume of FBS (Atlanta Biologicals), Rv1 and primary mouse prostatic fibroblasts were combined in a 1:3 ratio. Nylon squares were coated with collagen and placed on metal grids in a 6-well plate. Gel plugs (150 μl) were transferred onto the nylon squares and media was added to the level of the nylon mesh. After 72 hours, the cells were dissociated from the matrix with collagenase and dispersed for FACS analysis.
# FACS experiments were performed with eBiosciences antibodies: anti-human Stro-1-FITC (340105), anti-human CD90-PE (12-0909-42), anti-human CD105-APC (17-1057-41), anti-mouse CD105-APC (17-1051-82), anti-human CD117-PE-Cy7 (15-1178-41), anti-human Ki67-PECy7 (25-5699-41), and anti-human EpCAM-PE (12-9326-41). All events were acquired on a BD LSRII flow cytometer in the Cedars-Sinai Medical Center FACS core installed with BD FACSDiva software. Files were analyzed using FlowJo software v10.2. EpCAM positive cells were used to identify the CW22Rv1 epithelia in three-dimensional (3D) co-cultures and further gated for CD105 or Ki67 positive cells.
# CW22Rv1, C42B, and PC3 cells from ATCC were expanded as directed. Prostatectomy specimens from Cedars-Sinai Medical Center or the Greater Los Angeles Veterans Affairs were cultured to generate NAF and CAF cells using the same method, as C57BL/6 mouse wild-type prostatic fibroblasts were grown as previously reported (Franco et al., 2011, Cancer research 71, 1272-1281; Kiskowski et al., 2011, Cancer research 68, 4709-4718). TRC105 and M1043 were provided by TRACON Pharmaceuticals, Inc. (San Diego, Calif.). Enzalutamide (Xtandi) was purchased from Medivation (San Francisco, Calif.).
# [2] = tested on: NRF1, MTFA, and CPT1C in 22Rv1 cells; experiment: mRNA expression of PGC1α target genes; format: cell-based, human; conditions: radiation vs radiation plus TRC105; p<0.001
# Protocol: as §1
# Total RNA was extracted using the RNeasy kit (Qiagen). 1 μg RNA was used for cDNA synthesis using iSCRIPT cDNA synthesis kit (1708891, Bio-Rad). Quantitative RT-PCR was performed with 5 replicates using the Step One Real-Time PCR system (Applied Biosystems). […] For RNA-sequencing, Ion Proton AmpliSeq Transcriptome RNA Sequencing was performed achieving an average of 3M reads. We mapped an average of 88% of the reads to the human genome with Torrent Suite version 4.4.2.
# [3] = tested on: androgen receptor variants and RNPC1; experiment: Androgen receptor variants and RNPC1 expression; format: cell-based
# p53 in 22Rv1 cells = experiment: p53 status after irradiation; format: cell-based, human
# Protocol: In search for an alternate process mediating TRC105 radiation sensitization the inventors examined changes in cell cycle. The impact of radiation on the cell cycle is well described, as causing a G2 cell cycle arrest that undergoes cell cycle redistribution. […] As SIRT1 has previously been reported to regulate p53 stability by de-acetylating p53, the inventors investigated p53 status with TRC105 treatment. 22Rv1 cells were treated with either TRC105 or 200 μM nicotinamide, an inhibitor of SIRT1 activity, prior to irradiation (4Gy). Cells were then collected at 0, 1, and 7 days post radiation to elucidate early and late p53 response. […] While loss-of-function p53 mutations are rare in prostate cancer, 90% of pancreatic cancers have p53 mutations. We therefore used two p53 mutant pancreatic cancer cell lines: HPAF-II and MIAPACA-2 to identify if TRC105 unresponsiveness to radiation was due to p53 loss of functionality.
substance,measurement,setting,value
TRC105: partially humanized monoclonal antibody that blocks BMP signaling; human-specific CD105 (endoglin) neutralizing antibody from Tracon Pharmaceuticals,radiation-induced nuclear translocation of PGC1α,PGC1α in 22Rv1 cells; 72 hours,prevented radiation-induced nuclear translocation of PGC1α
same,"PGC1α expression, whole cell lysate","PGC1α in 22Rv1 cells; IgG or TRC105, 72 hours",no effect on PGC1α expression
same,"sensitization to docetaxel, cell death",PC3 cells,taxane sensitizer
same,"epithelial proliferation, antibody alone","[1]; compared to IgG control, 1 μg/mL, 72 hours",did not change epithelial proliferation
same,"enzalutamide-induced epithelial proliferation, single antibody",[1]; enzalutamide plus M1043 or TRC105,did not alter enzalutamide-induced epithelial proliferation
same,"epithelial proliferation, enzalutamide with both M1043 and TRC105",[1]; triple combination,restored epithelial proliferation to that of control
same,"mRNA expression of NRF1, MTFA, and CPT1C",[2],significantly increased with radiation compared to that in the presence of TRC105
same,RNPC1 (RBM38) expression,[3]; TRC105,down regulated
same,androgen receptor variants expression,[3]; TRC105,down regulated; also recorded: down-regulated
same,Notch and IL-6 mediated ARv expression,[3]; antagonizing endoglin,down regulate Notch and IL-6 mediated ARv expression
same,acetylated and total-p53,p53 in 22Rv1 cells; by 7 days post radiation,markedly increased
same,anti-apoptotic protein Bc1-2,p53 in 22Rv1 cells; prior to 4Gy irradiation,decrease in the anti-apoptotic protein Bc1-2
same,p21,p53 in 22Rv1 cells; prior to 4Gy irradiation,increase in p21
same,acetylated p53,"p53 in 22Rv1 cells; treatment prior to 4Gy, nicotinamide 200 μM",increase in acetylated p53
